Source: patent publication US20210255184A1, “Biosensor Device and Methods” (The New Zealand Institute for Plant and Food Research …, priority 2018, published 2021)

Molecular target: T1, Or35a (Drosophila melanogaster, UniProt Q9V3Q2)
T1 construct: his-tag; made in house; host or cells: baculovirus-infected Sf9 cells
T1 sequence (Q9V3Q2 1-409): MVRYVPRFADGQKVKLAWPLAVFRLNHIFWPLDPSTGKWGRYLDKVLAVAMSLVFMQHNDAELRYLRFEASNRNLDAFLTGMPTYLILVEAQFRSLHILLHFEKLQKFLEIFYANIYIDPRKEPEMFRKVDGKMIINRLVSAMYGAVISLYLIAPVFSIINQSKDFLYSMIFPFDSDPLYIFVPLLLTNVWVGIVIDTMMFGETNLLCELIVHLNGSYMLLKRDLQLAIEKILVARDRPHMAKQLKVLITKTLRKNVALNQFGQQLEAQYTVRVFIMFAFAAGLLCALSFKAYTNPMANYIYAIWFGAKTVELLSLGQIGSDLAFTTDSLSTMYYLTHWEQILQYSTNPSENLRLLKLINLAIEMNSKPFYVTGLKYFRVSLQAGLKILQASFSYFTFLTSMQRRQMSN
Assay: EIS sensor, Or35a liposomes on gold electrode
Assay type: biochemical
Settings: EIS dose response
Description: PBS (pH=7.4) was used as an electrolyte to conduct electrochemical measurements. PBS buffer was degassed for about 30 minutes prior to electrochemical measurements. Odorant solutions of concentration ranging from 1 aM to 1 μM were prepared by sequential dilution in PBS solution containing 1% DMSO. OR immobilized electrodes were incubated in relevant odorant solution for ˜30 minutes each and washed gently with PBS before EIS measurements.
EIS measurements were done in a 3 electrode cell containing Ag/AgCl (3 M NaCl, 0.209 V vs. SHE) reference electrode, coiled platinum wire as a counter electrode and the gold disk as a working electrode at a fixed voltage of −0.7 using PalmSens potentiostat. Degassed PBS was used as an electrolyte.
EIS measurements were performed on gold electrodes functionalised with OrX liposomes (either Or10a or Or22a), OrX/Orco liposomes, or empty liposomes prior to and after target ligand or control ligand incubation with increasing concentrations (1 aM to 100 μM). Dose response curves were obtained by defining sensor response as −(ΔRp/R^op) versus log[C(Ligand)]. FIG. 4a presents the EIS response in terms of Nyquist plot for the Or10a liposome functionalized sensors when exposed to a solution containing one of the known target ligands of Or10a, methyl salicylate, at various concentrations. […] The dose response curve (FIG. 4b) was obtained by plotting the change in polarization resistance −(ΔRp/R^op) versus log[conc(Ligand)], as the sensor response. Here, Rp is the polarization resistance after Or10a liposome-target interaction and R^op is the polarization resistance before Or10a liposome-target interaction.
Prior to use, 1 mg liposomes (500 μl at 2 mg/ml) were defrosted on ice and then destabilized by incubating with 0.2% CHAPS for 15 min at room temperature. […] All Or35a/Orco integrated liposomes samples were analysed by Western blot before being aliquoted and stored at −80° C. Integration of Or35a/Orco into liposomes was assessed by density gradient ultracentrifugation (DGU) using Accudenz (Accurate Chemical & Scientific Corporation, USA). […]

## COC(=O)c1ccccc1O [methyl salicylate]
  sensor response to control ligand: negligible response
